Results from patent US20240262909A1, “TIM-3 MODULATES ANTI-TUMOR IMMUNITY BY REGULATING INFLAMMASOME ACTIVATION” (THE BRIGHAM AND WOMEN'S HOSPITAL, INC., priority 2021, published 2024).

Experiments:
MC38-OVA tumor = MC38-OVA tumor growth and weight in Tim3fl.fl and Tim3fl.flxCD11c cre mice under inflammasome pathway inhibition; assay type: in vivo; conditions: Tim-3cko mice, 8 mg/kg
From the text: FIGS. 4A-4W: Loss of Tim3 on DC promotes inflammasome activation. (FIG. 4A) Unidirectional analysis of the fraction of DCs expressing ligand X and the fraction of T cells expressing the cognate Receptor; Ligand (MigDC): Receptor (CD8) interaction from WT (left) and Tim3cko (right) tumors. (FIG. 4B) Bar plot of data from FIG. 4A. (FIG. 4C). ECDF plots showing enrichment of IL-18 signature and (FIG. 4D) IL-1 signature in WT and Tim3^ckoCD8+ TILs. (FIG. 4E) ECDF plot of enrichment score for inflammasome signature in WT or Tim3^cko migratory DC, (p=1.5*10^−03), (FIG. 4F) Dot plot of selected genes from inflammasome signature. (FIG. 4G) ECDF plot of enrichment score for Oxidative Stress signature, (FIG. 4H) Dot plot of selected genes from Oxidative Stress signature. (FIG. 4I) MC38-OVA (0.5×10^6 cells) were subcutaneously implanted into Tim3^fl.fl and Tim3^fl.flxCD11c cre mice and on D14 tumors mononuclear cells were isolated and incubated with DHR123 for 30 minutes followed by flow-cytometric analysis of activated DHR123 as a measure of ROS activity in tumor infiltrating DC. […]
The C57BL/6-derived colon carcinoma MC38 and MC38-OVAdim were maintained at 37° C. with 5% CO2 in DMEM medium supplemented with 10% heat-inactivated fetal calf serum, penicillin, and streptomycin and 1% Sodium Pyruvate. […] Tumor size was determined by the formula L×W where L=length, W=width on the indicated days. […]

MC38-OVAdim tumor = MC38-OVAdim tumor growth and weight in Tim3fl.fl and Tim3fl.flZbtb46 cre mice with or without NAC; assay type: in vivo; conditions: Tim3cko mice, NAC daily in drinking water 40 mM
From the text: (§1) To investigate the effect of oxidative stress in Tim3^cko tumor bearing animals the inventors implanted Tim3^fl.fl and Tim3^fl.flZbtb46 cre mice with MC38-OVAdim and treated with or without antioxidant N-Acetyl-Cysteine (NAC) for the duration of the experiment. […] To determine whether mitigation of oxidative stress in Tim3^cko tumors also affected IL-1β levels intratumorally, the inventors prepared tumor supernatants and determined the levels of IL-1β in WT and Tim3cko animals treated with or without NAC.
(§2) The C57BL/6-derived colon carcinoma MC38 and MC38-OVAdim were maintained at 37° C. with 5% CO2 in DMEM medium supplemented with 10% heat-inactivated fetal calf serum, penicillin, and streptomycin and 1% Sodium Pyruvate. The C57BL/6-derived melanoma cell lines-B16 and B16-OVA-transfected clone were maintained at 37° C. with 5% CO2 in RPMI medium supplemented with 10% heat-inactivated fetal calf serum, penicillin, and streptomycin. MC38- OVA^dim (0.5×10^6), B16F10/B16-OVA (0.25×10^6) and MC38 (1.0×10^6) cells were injected subcutaneously in 100 μl PBS on the flank. Tumor size was determined by the formula L×W where L=length, W=width on the indicated days. In some experiments, mice were treated with anti-IL-1β (B122) and anti-IL-18 (YIGIF74-1 G7) or appropriate control Hamster Ig and Rat IgG2a (all at 8 mg/kg) i.p. on days 3, 6, 9 post tumor implantation. […]

IL-1β = IL-1β levels in tumor supernatants of WT and Tim3cko animals with or without NAC; assay type: in vivo, mice; conditions: Tim3cko tumors; NAC in drinking water 40 mM
From the text: as §1, §2

Compound | protective anti-tumor immunity observed in the Tim-3cko (MC38-OVA tumor) | protective inhibition of tumor growth (tumor growth) (MC38-OVAdim tumor) | protective inhibition of tumor growth (tumor weights post-harvest) (MC38-OVAdim tumor) | elevated intratumoral IL-1β levels (tumor supernatants) (IL-1β)
CC(C)(O)c1coc(S(=O)(=O)[N-]C(=O)Nc2c3c(cc4c2CCC4)CCC3)c1.[Na+] [CRID3] | abolished the protective anti-tumor immunity | – | – | –
CC(=O)N[C@@H](CS)C(=O)O [NAC, N-Acetyl-Cysteine] | – | completely abrogated | completely abrogated | completely reversed
